pIC50: −log10 of the molar value.
How the values were obtained:
K-Ras G12C = K-Ras G12C (Homo sapiens (Human), UniProt P01116+P62937, G12C); assay: Ras-Raf (BRAF RBD) disruption / FRET / MOA assay, KRAS G12C; assay type: biochemical; conditions: KRAS G12C; Ras-Raf disruption/FRET/MOA assay; read-out: IC50* KRAS G12C FRET data
Method in brief: (§1)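 Compounds, top final concentration 30 μM in 10-point 3-fold series, incubated 3 hours at 25° C with nucleotide-loaded Ras, cyclophilin A and BRAF RBD.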

KRAS G12D = KRAS G12D (Homo sapiens (Human), UniProt P01116+P62937, G12D); assay: Ras-Raf (BRAF RBD) disruption / FRET / MOA assay, KRAS G12D; assay type: biochemical; conditions: Ras-Raf disruption/FRET/MOA assay; class symbols; read-out: KRAS G12D FRET data IC50
KRAS G12D, sequence (P01116-2 other isoform, or with tags, fused parts or gaps G12D): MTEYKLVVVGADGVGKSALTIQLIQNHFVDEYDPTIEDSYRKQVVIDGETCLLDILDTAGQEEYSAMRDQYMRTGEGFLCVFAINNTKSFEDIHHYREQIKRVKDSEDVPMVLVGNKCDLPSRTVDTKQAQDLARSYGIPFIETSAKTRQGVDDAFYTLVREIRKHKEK
KRAS G12D, sequence (P62937 whole entry): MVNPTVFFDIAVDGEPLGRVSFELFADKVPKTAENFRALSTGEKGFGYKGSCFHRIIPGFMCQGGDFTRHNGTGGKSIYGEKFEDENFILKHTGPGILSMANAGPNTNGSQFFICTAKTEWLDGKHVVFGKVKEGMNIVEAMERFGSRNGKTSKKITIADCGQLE
Method in brief: as §1

KRAS WT = KRAS WT (Homo sapiens (Human), UniProt P01116+P62937); assay: Ras-Raf (BRAF RBD) disruption / FRET / MOA assay, KRAS WT; assay type: biochemical; conditions: read-out: IC50* KRAS WT FRET data
KRAS WT, sequence (P01116-2 other isoform, or with tags, fused parts or gaps): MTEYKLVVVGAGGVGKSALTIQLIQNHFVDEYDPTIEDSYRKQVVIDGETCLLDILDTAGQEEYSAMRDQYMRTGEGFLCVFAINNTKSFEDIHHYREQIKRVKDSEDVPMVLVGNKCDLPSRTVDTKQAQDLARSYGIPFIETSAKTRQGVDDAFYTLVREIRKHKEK
KRAS WT, sequence (P62937 whole entry): as the sequence (P62937 whole entry) above
Method in brief: as §1

NCI-H358 (K-Ras G12C) = assay: CellTiter-Glo cell viability assay, NCI-H358; assay type: cell-based, human; conditions: Homo sapiens, NCI-H358, 120 h, NCI-H358, 5-day treatment; class symbols; read-out: Additional H358 Cell Viability assay data (K-Ras G12C, IC50)
Method in brief: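 Compounds dispensed directly onto seeded K-Ras mutant cells; plates read on day 5 after ~30 min equilibration to room temperature, by CellTiter-Glo luminescence. Signal normalized as (sample/mean DMSO)×100, then fitted to a four-parameter logistic curve.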

KRAS G12S = KRAS G12S (Homo sapiens (Human), UniProt P01116+P62937, G12S); assay: Ras-Raf (BRAF RBD) disruption / FRET / MOA assay, KRAS G12S; assay type: biochemical; conditions: Ras-Raf disruption/FRET/MOA assay; class symbols; read-out: KRAS G12S FRET data IC50
KRAS G12S, sequence (P01116-2 other isoform, or with tags, fused parts or gaps G12S): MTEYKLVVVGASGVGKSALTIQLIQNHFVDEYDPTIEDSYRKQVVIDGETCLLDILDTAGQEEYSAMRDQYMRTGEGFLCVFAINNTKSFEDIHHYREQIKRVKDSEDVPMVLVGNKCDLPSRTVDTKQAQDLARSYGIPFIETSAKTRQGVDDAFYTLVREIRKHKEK
KRAS G12S, sequence (P62937 whole entry): as the sequence (P62937 whole entry) above
Method in brief: as §1

K-Ras G13C = K-Ras G13C (Homo sapiens (Human), UniProt P01116+P62937, G13C); assay: Ras-Raf (BRAF RBD) disruption / FRET / MOA assay, KRAS G13C; assay type: biochemical; conditions: KRAS G13C; Ras-Raf disruption/FRET/MOA assay; read-out: IC50* KRAS G13C FRET data
K-Ras G13C, sequence (P01116-2 other isoform, or with tags, fused parts or gaps G13C): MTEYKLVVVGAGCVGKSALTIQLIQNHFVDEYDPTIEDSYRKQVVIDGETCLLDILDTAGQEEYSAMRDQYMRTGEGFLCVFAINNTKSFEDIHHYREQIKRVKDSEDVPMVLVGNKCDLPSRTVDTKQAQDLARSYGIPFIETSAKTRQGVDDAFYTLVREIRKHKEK
K-Ras G13C, sequence (P62937 whole entry): as the sequence (P62937 whole entry) above
Method in brief: as §1

KRAS G12V = KRAS G12V (Homo sapiens (Human), UniProt P01116+P62937, G12V); assay: Ras-Raf (BRAF RBD) disruption / FRET / MOA assay, KRAS G12V; assay type: biochemical; conditions: read-out: IC50* KRAS G12V FRET data
KRAS G12V, sequence (P01116-2 other isoform, or with tags, fused parts or gaps G12V): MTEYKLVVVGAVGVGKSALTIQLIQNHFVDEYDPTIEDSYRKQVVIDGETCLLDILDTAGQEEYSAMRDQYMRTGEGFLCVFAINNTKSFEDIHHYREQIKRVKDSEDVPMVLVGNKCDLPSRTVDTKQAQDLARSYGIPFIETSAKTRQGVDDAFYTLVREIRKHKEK
KRAS G12V, sequence (P62937 whole entry): as the sequence (P62937 whole entry) above
Method in brief: as §1

KRAS G13D = KRAS G13D (Homo sapiens (Human), UniProt P01116+P62937, G13D); assay: Ras-Raf (BRAF RBD) disruption / FRET / MOA assay, KRAS G13D; assay type: biochemical; conditions: read-out: IC50* KRAS G13D FRET data
KRAS G13D, sequence (P01116-2 other isoform, or with tags, fused parts or gaps G13D): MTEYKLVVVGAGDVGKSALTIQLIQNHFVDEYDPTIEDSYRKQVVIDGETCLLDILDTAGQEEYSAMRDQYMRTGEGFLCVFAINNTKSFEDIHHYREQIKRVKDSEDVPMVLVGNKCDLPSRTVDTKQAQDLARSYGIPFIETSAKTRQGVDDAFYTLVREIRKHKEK
KRAS G13D, sequence (P62937 whole entry): as the sequence (P62937 whole entry) above
Method in brief: as §1

NRAS G12C = NRAS G12C (Homo sapiens (Human), UniProt P01111+P62937, G12C); assay: Ras-Raf (BRAF RBD) disruption / FRET / MOA assay, NRAS G12C; assay type: biochemical; conditions: read-out: IC50* NRAS G12C FRET data
NRAS G12C, sequence (P01111 whole entry G12C): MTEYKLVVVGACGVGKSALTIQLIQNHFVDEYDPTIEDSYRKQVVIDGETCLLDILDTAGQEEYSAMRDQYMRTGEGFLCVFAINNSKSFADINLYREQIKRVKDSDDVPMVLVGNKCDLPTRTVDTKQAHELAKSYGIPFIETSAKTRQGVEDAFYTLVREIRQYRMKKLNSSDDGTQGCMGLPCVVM
NRAS G12C, sequence (P62937 whole entry): as the sequence (P62937 whole entry) above
Method in brief: as §1

K-Ras G12C, sequence (P01116-2 other isoform, or with tags, fused parts or gaps G12C): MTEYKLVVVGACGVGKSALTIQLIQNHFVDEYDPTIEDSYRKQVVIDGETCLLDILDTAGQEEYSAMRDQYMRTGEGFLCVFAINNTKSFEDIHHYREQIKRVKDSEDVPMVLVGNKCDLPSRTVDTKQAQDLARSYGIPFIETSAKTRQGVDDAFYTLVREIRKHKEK
K-Ras G12C, sequence (P62937 whole entry): as the sequence (P62937 whole entry) above

SMILES	pIC50 (K-Ras G12C)	pIC50 (KRAS G12D)	pIC50 (KRAS WT)	pIC50 (NCI-H358 (K-Ras G12C))	pIC50 (KRAS G12S)	pIC50 (K-Ras G13C)	pIC50 (KRAS G12V)	pIC50 (KRAS G13D)	pIC50 (NRAS G12C)
C=CC(=O)N1CC(O[C@H](C(=O)N[C@H]2Cc3cc(O)cc(c3)-c3ccc4c(c3)c(c(-c3cccnc3COC)n4CC)CC(C)(C)COC(=O)[C@@H]3CCCN(N3)C2=O)C(C)C)C1 [Example A235]	5.00 to 6.00	< 5.00	< 5.00	< 6.00	< 5.00	5.00 to 6.00	< 5.00	< 5.00	5.00 to 6.00
C=CC(=O)N1CC[C@H](C(=O)N(C)[C@H](C(=O)N[C@H]2CC3=NN=C(S3)c3ccc4c(c3)c(c(-c3cccnc3COC)n4CC)CC(C)(C)COC(=O)[C@@H]3CCCN(N3)C2=O)C(C)C)C1 [Example A236]	< 5.00	< 5.00	< 5.00	< 6.00	< 5.00	< 5.00	< 5.00	< 5.00	< 5.00
C=CC(=O)N1CC[C@H](C(=O)N(C)[C@H](C(=O)N[C@H]2CN(C)C(=O)Cc3ccc4c(c3)c(c(-c3cccnc3COC)n4CC)CC(C)(C)COC(=O)[C@@H]3CCCN(N3)C2=O)C(C)C)C1 [Example A239]	< 5.00	< 5.00	< 5.00	< 6.00	< 5.00	< 5.00	< 5.00	< 5.00	< 5.00
C=CC(=O)N1CC[C@H](C(=O)N(C)[C@H](C(=O)N[C@@H]2C(=O)N3CCC[C@H](N3)C(=O)OCC(C)(C)Cc3c(-c4cncnc4)n(CC)c4ccc(cc34)-c3cccc(c3)[C@@H]2OC)C(C)C)C1 [Example A271]	< 5.00	< 5.00	< 5.00	< 6.00	< 5.00	< 5.00	< 5.00	< 5.00	< 5.00
C=CC(=O)N1CC[C@H](C(=O)N(C)[C@H](C(=O)N[C@@H]2C(=O)N3CCC[C@H](N3)C(=O)OCC(C)(C)Cc3c(-c4cncnc4)n(CC)c4ccc(cc34)-c3cccc(c3)[C@H]2OC)C(C)C)C1 [Example A273]	< 5.00	< 5.00	< 5.00	< 6.00	< 5.00	< 5.00	< 5.00	< 5.00	< 5.00
CC#CC(=O)N1CC[C@H](C(=O)N(C)[C@H](C(=O)N[C@H]2Cc3nc(cs3)-c3ccc4c(c3)c(c(-c3cccnc3[C@H](C)OC)n4C(C)=O)CC(C)(C)COC(=O)[C@@H]3CCCN(N3)C2=O)C(C)C)C1 [Example A293]	< 5.00	< 5.00	< 5.00	< 6.00	< 5.00	< 5.00	< 5.00	< 5.00	< 5.00
CO[C@@H](C)c1ncccc1-c1nc2ccc3cn2c1CC(C)(C)COC(=O)[C@@H]1CCCN(N1)C(=O)[C@@H](NC(=O)[C@H](C(C)C)N(C)C(=O)[C@H]1CCN(C(=O)C#CC(C)(C)N(C)C)C1)Cc1cccc-3c1 [Example A311]	< 5.00	< 5.00	< 5.00	< 6.00	< 5.00	< 5.00	< 5.00	< 5.00	< 5.00
C=CC(=O)N1CC[C@H](C(=O)N(C)[C@H](C(=O)NC2C[C@@H]3CN(CCO3)c3ccc4c(c3)c(c(-c3cccnc3[C@H](C)OC)n4CC)CC(C)(C)COC(=O)[C@@H]3CCCN(N3)C2=O)C(C)C)C1 (stereo partly drawn) [Example A312]	< 5.00	< 5.00	< 5.00	< 6.00	< 5.00	< 5.00	< 5.00	< 5.00	< 5.00
C=CC(=O)N1CC[C@H](C(=O)N(C)[C@H](C(=O)N[C@H]2Cc3cccc(c3)-c3ccc4c(c3)c(c(-c3cc(CN(C)C)cnc3[C@H](C)OC)n4CC)CC(C)(C)COC(=O)[C@@H]3CCCN(N3)C2=O)C(C)C)C1 [Example A523]	5.00 to 6.00	< 5.00	< 5.00	6.00 to 7.00	< 5.00	< 5.00	< 5.00	< 5.00	5.00 to 6.00

Source: US11566007B2, “Ras inhibitors” (Revolution Medicines, Inc., priority 2019, dated 2023)
